What was measured:
Rattus norvegicus [1] = assay: The compound was tested for inhibition of lung eosinophilia in rat at 3 mg/kg/day, po; format: functional
[2] = The compound was tested for terminal half-life pharmacokinetic parameter in the male Sprague-Dawley rat.; format: ADME, organism-based; conditions: in vivo
[3] = The compound was tested for Cmax value pharmacokinetic parameter in the male Sprague-Dawley rat.; format: ADME, organism-based; conditions: in vivo
[4] = The compound was tested for tmax value pharmacokinetic parameter in the male Sprague-Dawley rat.; format: ADME, organism-based; conditions: in vivo
[5] = Oral bioavailability in rat (Sprague-Dawley) (male); format: ADME, organism-based; conditions: in vivo
[6] = The compound was tested for cytoprotective effect against the human astroglial cells.; format: functional, cell-based
Mus musculus [7] = species: Mus musculus; assay: The compound was evaluated for increase in neurological status at 1 hr post head injury using a simple grip test in mouse.; format: functional
Mus musculus [8] = assay: The compound was tested for inhibition of lung eosinophilia in mouse at 10 mg/kg/day, po; format: functional
Rattus norvegicus [9] = species: Rattus norvegicus; assay: The compound was tested for inhibition of [Fe2+]-induced MDA formation in rat brain homogenate.; format: functional
Rattus norvegicus [10] = assay: The compound was tested for inhibition of lung eosinophilia in rat at 30mg/kg/day, po; format: functional
Mus musculus [11] = species: Mus musculus; assay: The compound was tested for spinal neuroprotection in mouse.; format: functional, organism-based
[12] = The compound was tested for steady state volume of distribution pharmacokinetic parameter in the male Sprague-Dawley rat.; format: ADME, organism-based; conditions: in vivo
Mus musculus [13] = assay: The compound was tested for inhibition of lung eosinophilia in mouse at 3 mg/kg/day, po; format: functional
Mus musculus [14] = assay: The compound was tested for inhibition of lung eosinophilia in mouse at 30 mg/kg/day, po; format: functional
[15] = The compound was tested for systemic clearance pharmacokinetic parameter in the male Sprague-Dawley rat.; format: ADME, organism-based; conditions: in vivo
Rattus norvegicus [16] = assay: The compound was tested for inhibition of lung eosinophilia in rat at 30 mg/kg/day, po; format: functional
Rattus norvegicus [17] = assay: The compound was tested for inhibition of lung eosinophilia in rat at 10 mg/kg/day, po; format: functional
Rattus norvegicus [18] = assay: The compound was tested for inhibition of lung eosinophilia in rat at 3mg/kg/day, po; format: functional

SMILES	inhibition in vivo at 3 mg/kg/day (Rattus norvegicus [1]) [%]	half-life [2] [h]	Cmax [3] [µg/mL]	Tmax [4] [h]	bioavailability [5] [%]	EC50 [6] [µM]	Score (Mus musculus [7]) [%]	inhibition in vivo at 10 mg/kg/day (Mus musculus [8]) [%]	IC50 (Rattus norvegicus [9]) [µM]	inhibition in vivo at 30 mg/kg/day (Rattus norvegicus [10]) [%]	IC50 (Mus musculus [11]) [µM]	Vd [12] [L/kg]	inhibition in vivo at 3 mg/kg/day (Mus musculus [13]) [%]	inhibition in vivo at 30 mg/kg/day (Mus musculus [14]) [%]	clearance [15] [L/h/kg]	inhibition in vivo at 30 mg/kg/day (Rattus norvegicus [16]) [%]	inhibition in vivo at 10 mg/kg/day (Rattus norvegicus [17]) [%]	inhibition in vivo at 3 mg/kg/day (Rattus norvegicus [18]) [%]
Cn1c2c(c3c(N4CCCC4)nc(N4CCCC4)nc31)CCCC2	72	8.9	40.3	2	70.2	0.2	276	31	2	47	0.34	1.09	0	41	0.1	–	–	–
Cc1cc2c(N3CCCC3)nc(N3CCCC3)nc2n1C	–	10.9	5.71	4	84.6	0.2	100	0	1	–	7	39.7	0	0	0.53	28	27	0
COc1ccc(-c2cc3c(N4CCCC4)nc(N4CCCC4)nc3n2C)cc1	–	24.3	0.6	4	59.8	0.4	73	–	1	–	3.4	42.8	–	–	1.24	–	–	–
Cn1c(-c2ccc(O)cc2)cc2c(N3CCCC3)nc(N3CCCC3)nc21	–	6.1	0.72	8	31.4	0.2	138	–	1	–	0.13	66.2	–	–	2.33	–	–	–
c1ccc2c(c1)c1c(N3CCCC3)nc(N3CCCC3)nc1n2CCN1CCOCC1	–	15.7	14.7	2	69.9	3	–	62	–	85	10.6	1.92	53	71	0.12	–	87	–
C1CCc2c(c3c(N4CCCC4)nc(N4CCCC4)nc3n2CCN2CCOCC2)C1	13	11.2	19.4	2	78.3	0.3	163	56	–	62	1.1	0.94	37	72	0.058	–	30	–
Cn1c(-c2ccccc2)cc2c(N3CCCC3)nc(N3CCCC3)nc21	–	22.1	1.42	4	55.9	0.9	104	–	5	–	1.3	44	–	–	1.42	–	–	–

Source: ChEMBL document CHEMBL1128318, “Synthesis of novel 2,4-diaminopyrrolo-[2,3-d]pyrimidines with antioxidant, neuroprotective, and antiasthma activity” (J Med Chem, 1995)
